Experiments:
Assay type in all cases: cell-based
[1] = system: human G12D mutant KRAS-positive pancreatic cancer line AsPC-1; test: Non-anchorage-dependent cell growth inhibitory effect, spheroid 3D culture (Test Example 3); conditions: ASPC1, 144 h, AsPC-1 spheroid 3D culture, 6 days, CellTiter Glo 2.0, read-out: IC50 (non-anchorage-dependent cell growth inhibition)
Experimental: The non-anchorage-dependent cell growth inhibitory effect of test compounds was evaluated by spheroid 3D cell culture.
AsPC-1 cells were seeded on low-cell-adhesive round bottom 384-well plates (PrimeSurface: from Sumitomo Bakelite) at 20 μL (or […])/well to give 5×10^2 cells per well. As for the cell culture conditions, RPMI 1640 medium containing 10% fetal bovine serum was used in the presence of 5% CO2 at 37° C.
The next day, the test compounds (10 points or 6 points having final concentrations in the range of 10 μM to 0.3 nM) and DMSO, which was the solvent for the test compounds, as a negative control were diluted 500-fold (or 100-fold) with a fresh medium and were added at 20 μL (or […]) per well. After culturing in the presence of 5% C02 at 37° C. for 6 days, CellTiter Glo 2.0 (from Promega) was added at 20 μL per well. After stirring with a plate mixer (from FINEPCR) at normal temperature for 1 hour, the luminescent signals were measured with ARVO X3 (from PerkinElmer).
(§1) With the signaling value in treatment with DMSO taken as 100% and with the signaling value in the medium alone without cells taken as 0%, the 50% inhibitory concentration values (IC50) were calculated by Sigmoid-Emax nonlinear regression analysis. The calculated 50% inhibition represents the inhibition at the highest concentration evaluated (10 μM) for a compound that exceeds the concentration in the evaluation range.
(§2) In the tables presented below, Ex represents Example No. The IC50 of Ex. 13, Ex. 15, and Ex. 16 were calculated using the molecular weights as tetrahydrochloride, and the IC50 of Ex. 14 was calculated using the molecular weight as trihydrochloride.

[2] = system: phosphorylation of ERK (Thr202/Tyr204); test: ERK phosphorylation inhibitory effect by Cell ELISA in AsPC-1 cells (Test Example 2); conditions: Homo sapiens, ASPC1, overnight treatment, Cell ELISA, read-out: IC50 (ERK phosphorylation inhibition)
Experimental: The ERK phosphorylation inhibitory effect of test compounds was evaluated by measuring phosphorylation of threonine 202 (Thr202) and tyrosine 204 (Tyr204) of ERK located downstream of the KRAS signal by Cell ELISA.
AsPC-1 cells were seeded on 384-well plates at 20 µL/well to give 2.0×10^4 cells per well. As for the cell culture conditions, RPMI 1640 medium containing 10% fetal bovine serum was used in the presence of 5% CO2 at 37° C.
The next day, the test compounds (10 points having final concentrations in the range of 10 μM to 0.3 nM), trametinib (MEK inhibitor) of a final concentration of […] as positive control and DMSO, which was the solvent for the test compounds, as negative control were diluted 500-fold with a fresh medium and were added at 20 μL per well. The cells were cultured overnight. After culturing, 30% glyoxal solution (40% glyoxal [from Nacalai Tesque]was diluted with PBS) was quickly added at 30 μL per well, and the plates were allowed to stand for 120 minutes at room temperature to thus immobilize the cells. Then, the plates were centrifuged to remove the supernatant (using a centrifugal dehydrator machine, the supernatant was removed by the same method hereinafter), and 0.10% Triton X-100-containing PBS was added at 20 μL per well. After allowing to stand for 10 minutes at room temperature, the supernatant was removed, and the same operation was further repeated. Next, 0.5% SDS-containing PBS was added at 20 μL per well, and after allowing to stand at room temperature for 30 minutes, the supernatant was removed. Subsequently, blocking solution (Intercept Blocking Buffer) was added at 20 μL per well, and the plates were allowed to stand for 1 hour at room temperature. The supernatant was removed, and an ERK (Thr202/Tyr204) phosphorylation antibody (Phospho-p44/42 MAPK (Erk 1/2) (Thr202/Tyr204) (D13.14.4E) XP Rabbit mAb; from Cell Signaling Technology) diluted 2,500-fold with blocking solution was added at 15 μL per well as a primary antibody. The plates were allowed to stand at 4° C. overnight.
The next day, the supernatant was removed. 0.05% Tween-20 (from Thermo Fisher Scientific)-containing PBS was added at 50 μL per well, and the supernatant was removed to thus wash each well. The washing was performed three times in total. After washing, Goat anti-Rabbit IgG H&L (IRDye 800CW) diluted 1,000-fold with blocking solution was added at 15 μL per well as a secondary antibody, and the plates were allowed to stand for 1 hour at room temperature. The supernatant was removed, and each well was washed three times with 0.05% Tween-20-containing PBS in the same manner as after the primary antibody reaction. After removing the supernatant, the plates were dried with air at room temperature for 3 hours or more, and the 800-nm fluorescent signals were measured with Aerius.
as §1, with “value at the time of addition of” for “value in treatment with”, “value at” for “value in”, “the time of addition of […] trametinib” for “the medium alone without cells”
as §2

KRAS G12D = target: T1, KRAS G12D (Homo sapiens, UniProt P01116, G12D); test: KRAS degradation activity by Cell ELISA in AsPC-1 cells (Test Example 1); conditions: Cell ELISA; for Dmax: ASPC1, overnight treatment, read-out: Dmax (degradation rate at the concentration showing highest degradation); for DC50: overnight treatment, read-out: DC50 (50% degradation concentration of KRAS)
T1 construct: host or cells: AsPC-1 (human pancreatic cancer line)
Experimental: The KRAS degradation activity of test compounds was evaluated by measuring the expression levels of KRAS G12D by Cell ELISA.
AsPC-1 cells were seeded at 20 μL per well on 384-well plates (from Greiner bio-one) to give 2.0×10^4 cells per well. As for the cell culture conditions, RPMI 1640 (from Sigma-Aldrich) medium containing 10% fetal bovine serum (from Cytiva) was used in the presence of 5% CO2 at 37° C.
The next day, the test compounds (10 points having final concentrations in the range of 10 μM to 0.3 nM) and DMSO (from FUJIFILM Wako Pure Chemical Corporation), which was the solvent for the test compounds, as a negative control were diluted 500-fold with a fresh medium and were added at 20 μL per well. The cells were cultured overnight. The next day, the culture supernatant was removed, and 4% paraformaldehyde phosphate buffer (from FUJIFILM Wako Pure Chemical Corporation) was added at 20 μL per well. The plates were allowed to stand for 30 minutes at room temperature to thus immobilize the cells. Then, the supernatant was removed, and 0.1% Triton X-100 (from Amersham Biosciences)-containing Phosphate buffered saline (PBS; from FUJIFILM Wako Pure Chemical Corporation) was added at 20 μL per well. After allowing to stand for 10 minutes at room temperature, the supernatant was removed. PBS was added at 25 μL per well, and the supernatant was removed to thus wash each well. The washing was performed twice in total. Next, the supernatant was removed, and 0.5% sodium dodecyl sulfate (SDS; from Invitrogen)-containing PBS was added at 20 μL per well. After allowing to stand at room temperature for 10 minutes, the supernatant was removed by a centrifugal operation (using a centrifugal dehydrator machine, the supernatant was removed by the same method hereinafter). PBS was added at 25 μL per well, and the supernatant was removed to thus wash each well. The washing was performed twice in total. The supernatant was removed, and blocking solution (Intercept Blocking Buffer; from Li—COR Biosciences) was added at 20 μL per well. After allowing to stand for 30 minutes at room temperature, the supernatant was removed, and a solution obtained by diluting anti-β-actin antibody (Anti-beta Actin antibody [mAbcam 8226]-Loading Control; from abcam) 1,000-fold with blocking solution and a solution obtained by diluting anti-Ras (G12D Mutant Specific) antibody (Ras (G12D Mutant Specific) (D8H7) Rabbit mAb #14429; from Cell Signaling Technology) and anti-β-actin antibody (from abcam) 1,000-fold with blocking solution were respectively added to positive control wells and the other wells at 15 μL per well as a primary antibody. The plates were allowed to stand overnight at 4° C.
The next day, the supernatant was removed. PBS was added at 25 μL per well, and the supernatant was removed to thus wash each well. The washing was performed twice in total. The supernatant was removed, and a solution obtained by diluting Donkey anti-Mouse IgG H&L (IRDye 680RD) (from Li—COR Biosciences) and Goat anti-Rabbit IgG H&L (IRDye 800CW) (from Li—COR Biosciences) 1,000-fold with blocking solution was added at 15 μL per well as a secondary antibody. A solution obtained by diluting Donkey anti-Mouse IgG H&L (IRDye 680RD) (from Li—COR Biosciences) 1,000-fold with blocking solution was added to a positive control well as a secondary antibody. After allowing to stand for 1 hour at room temperature, the supernatant was removed. PBS was added at […], and the supernatant was removed to thus wash each well. The washing was performed twice in total. After removing the supernatant, the plates were dried with air at room temperature for 2 hours or more, and the 700 nm and 800 nm fluorescent signals were measured with Aerius (from Li—COR Biosciences). […]

T1 sequence (P01116 1-188 isoform P01116-2 G12D): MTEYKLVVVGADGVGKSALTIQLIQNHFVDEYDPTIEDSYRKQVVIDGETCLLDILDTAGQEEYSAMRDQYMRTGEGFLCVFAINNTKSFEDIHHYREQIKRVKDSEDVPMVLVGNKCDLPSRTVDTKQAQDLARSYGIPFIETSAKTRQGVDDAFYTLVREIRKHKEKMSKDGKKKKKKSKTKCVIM

IC50 [1] | IC50 [2] | Dmax (KRAS G12D) | DC50 (KRAS G12D) | Structure (SMILES)
123 nM | 69 nM | 74% | 41 nM | CO[C@H](C)COc1cc(O[C@H]2CCNC2)c2cc(C3CC3)c(-c3c(C)c(F)cc4[nH]ncc34)c(OCc3ccc(C(=O)N4CCN(Cc5ccc6c(c5)n(C)c(=O)n6C5CCC(=O)NC5=O)C[C@@H]4C)cc3)c2n1 (some centres unmarked) [Example 44]
159 nM | 78 nM | 80% | 79 nM | Cc1c(F)cc2[nH]ncc2c1-c1c(C2CC2)cc2c(N3C[C@@H]4C[C@H]3CN4)nc(O[C@@H]3CCOC3)nc2c1OCc1ccc(C(=O)N2CCN(Cc3ccc4c(c3)n(C)c(=O)n4C3CCC(=O)NC3=O)C[C@@H]2C)cc1 (some centres unmarked) [Example 36]
161 nM | – | – | – | Cc1c(F)cc2[nH]ncc2c1-c1c(C2CC2)nc2c(N3C[C@@H]4C[C@H]3CN4)nc(OC3CCOCC3)nc2c1OCc1ccc(C(=O)N2CCN(Cc3ccc4c(c3)n(C)c(=O)n4C3CCC(=O)NC3=O)C[C@@H]2C)cc1 (some centres unmarked) [Example 48]
162 nM | – | – | – | CO[C@@H](C)COc1nc(N2CCNCC2)c2cc(C3CC3)c(-c3c(C)c(F)cc4[nH]ncc34)c(OCc3ccc(C(=O)N4CCN(Cc5ccc6c(c5)n(C)c(=O)n6C5CCC(=O)NC5=O)C[C@@H]4C)cc3)c2n1 (some centres unmarked) [Example 45]

The remaining lines, values behind:

Structure (SMILES) | IC50 [1] | IC50 [2] | Dmax (KRAS G12D) | DC50 (KRAS G12D)
Cc1c(F)cc2[nH]ncc2c1-c1c(C2CC2)cc2c(N3C[C@@H]4C[C@H]3CN4)nc(OC3CCOCC3)nc2c1OCc1ccc(C(=O)N2CCN(Cc3ccc4c(N5CCC(=O)NC5=O)nn(C)c4c3)C[C@H]2C)cc1 (atropisomer, axis not shown) [Example 15] | 211 nM | 503 nM | 60% | 406 nM
Cc1c(F)cc2[nH]ncc2c1-c1c(C2CC2)cc2c(N3C[C@@H]4C[C@H]3CN4)nc(OC3CCOCC3)nc2c1OCc1ccc(C(=O)N2CCN(Cc3ccc4c(c3)oc(=O)n4C3CCC(=O)NC3=O)CC2)cc1 (some centres unmarked) [Example 3] | 120 nM | 94 nM | 83% | 53 nM
Cc1c(F)cc2[nH]ncc2c1-c1c(C2CC2)cc2c(N3C[C@@H]4C[C@H]3CN4)nc(OC3CCOCC3)nc2c1OCc1ccc(C(=O)N2C3CCC2CN(Cc2ccc4c(c2)C(=O)N(C2CCC(=O)NC2=O)C4=O)C3)cc1 (stereo partly drawn) [Example 5, 5-[(8-{4-[({(7M)-6-cyclopropyl-4-[(1S,4S)-2,5-diazabicyclo[2.2.1]heptan-2-yl]-7-(6-fluoro-5-methyl-1H-indazol-4-yl)-2-[(oxan-4-yl)oxy]quinazolin-8-yl}oxy)methyl]benzoyl}-3,8-diazabicyclo[3.2.1]octan-3-yl)methyl]-2-(2,6-dioxopiperidin-3-yl)-1H-isoindole-1,3(2H)-dione] | 490 nM | 329 nM | 84% | 308 nM
Cc1c(F)cc2[nH]ncc2c1-c1c(C2CC2)cc2c(N3C[C@@H]4C[C@H]3CN4)nc(OC3CCOCC3)nc2c1OCc1ccc(C(=O)N2CCC3(CN(Cc4ccc5c(N6CCC(=O)NC6=O)nn(C)c5c4)C3)C2)cc1 (atropisomer, axis not shown) [Example 19] | 242 nM | 555 nM | 93% | 278 nM
Cc1c(F)cc2[nH]ncc2c1-c1c(C2CC2)cc2c(N3C[C@@H]4C[C@H]3CN4)nc(OC3CCOCC3)nc2c1OCc1ccc(C(=O)N2CCN(Cc3cccc4c(N5CCC(=O)NC5=O)nn(C)c34)CC2)cc1 (atropisomer, axis not shown) [Example 23] | 1090 nM | 1560 nM | 61% | 2810 nM
Cc1c(F)cc2[nH]ncc2c1-c1c(C2CC2)cc2c(N3C[C@@H]4C[C@H]3CN4)nc(OC3CCOCC3)nc2c1OCc1ccc(C(=O)N2CCN(Cc3ccc4c(c3)n(C)c(=O)n4N3CCC(=O)NC3=O)C[C@@H]2C)cc1 (atropisomer, axis not shown) [Example 47] | 448 nM | – | – | –
Cc1c(F)cc2[nH]ncc2c1-c1c(C2CC2)cc2c(N3C[C@@H]4C[C@H]3CN4)nc(OC3CCOCC3)nc2c1OCc1ccc(C(=O)N2CCN(Cc3ccc4c(c3)cc(N3CCC(=O)NC3=O)c(=O)n4C)C[C@@H]2C)cc1 (atropisomer, axis not shown) [Example 46] | 1280 nM | – | – | –

— patent US20250145631A1, “HETEROCYCLIC COMPOUND ACTING ON G12D MUTANT KRAS PROTEIN” (Astellas Pharma Inc., priority 2022, published 2025)
